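Following 48 hours of exposure in 96-well plates, responses at five concentrations were used to interpolate endpoints linearly. At the GI50, growth is halved.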 The source made the active and inactive calls. No stated cut-off is given here; in the data, active = GI50 up to about 1.1 µM and inactive = higher.

Some test systems named below: MCF7; SK-MEL-2; CCRF-CEM; SNB-75; SK-MEL-5; MDA-MB-231; CAKI-1; M14; SR; TK-10; UO-31; RPMI-8226; RXF 393; NCI/ADR-RES; SNB-19; SW-620; 786-0; U-251; HL-60; SF-295.
Common to all, as to test: inhibition of tumour cell growth, NCI panel, 48 h

With `O=C1C2CC(Cl)C(SSC3CC4C(=O)N(SC(Cl)(Cl)C(Cl)Cl)C(=O)C4CC3Cl)CC2C(=O)N1SC(Cl)(Cl)C(Cl)Cl` (stereo not given), the GI50 in the assay with MCF7 was 1.67 µM (inactive); in the assay with SK-MEL-2, 1.53 µM (inactive); in the assay with CCRF-CEM it was 0.249 µM (active); in the assay with SNB-75 it was 2.05 µM (inactive); with SK-MEL-5 it was 1.97 µM (inactive); in the assay with MDA-MB-231, 1.54 µM (inactive). Moreover, the GI50 in the assay on CAKI-1 was 2.11 µM (inactive); with M14, 1.21 µM (inactive); with SR, 0.229 µM (active); with TK-10, 2.59 µM (inactive); with UO-31, 1.94 µM (inactive); with RPMI-8226, 1.81 µM (inactive). Also, the GI50 in the assay on RXF 393 is 1.33 µM (inactive); in the assay with NCI/ADR-RES, 2.06 µM (inactive); in the assay with SNB-19, 3.86 µM (inactive); with SW-620 it was 1.27 µM (inactive); with 786-0, 1.56 µM (inactive); with U-251, 1.4 µM (inactive). Besides, the figures for the GI50 with HL-60 and in the assay with SF-295 were 0.543 µM (active) and 5.13 µM (inactive), respectively.
Consider `O=C1/C(=C/c2ccc(O)cc2)CCc2ccccc21`, for which the GI50 is 6.38 µM (inactive) in the assay with MCF7; 16 µM (inactive) with SK-MEL-2; 1.7 µM (inactive) in the assay on CCRF-CEM; 26.9 µM (inactive) in the assay with SNB-75; 16.9 µM (inactive) in the assay on SK-MEL-5; 20.5 µM (inactive) in the assay with MDA-MB-231. In addition, the GI50 with CAKI-1 was 31.3 µM (inactive); with M14 it was 20.2 µM (inactive); in the assay on SR, 5.45 µM (inactive); with TK-10, 51.5 µM (inactive); in the assay on UO-31 it was 19.6 µM (inactive); with RPMI-8226, 6.5 µM (inactive). The GI50 in the assay with RXF 393 is 17.1 µM (inactive); with NCI/ADR-RES, 12.7 µM (inactive); in the assay on SNB-19, 22.4 µM (inactive); in the assay on SW-620, 19.4 µM (inactive); in the assay with 786-0, 16.7 µM (inactive); with U-251, 27.6 µM (inactive). Moreover, the GI50 in the assay on HL-60 is 6.14 µM (inactive); in the assay with SF-295, 28 µM (inactive).
As for `Clc1nc2c(C#Cc3ccccc3)ncnc2n1C1CCCCO1` (stereo not given), the GI50 is 8.32 µM (inactive) with MCF7; 12.9 µM (inactive) in the assay with SK-MEL-2; 5.15 µM (inactive) with CCRF-CEM; 18.1 µM (inactive) in the assay on SNB-75; 11.6 µM (inactive) in the assay with SK-MEL-5; 16.6 µM (inactive) in the assay with MDA-MB-231. The GI50 with CAKI-1 is 10 µM (inactive); in the assay on M14 it was 12.1 µM (inactive); in the assay with SR it was 4.37 µM (inactive); in the assay on TK-10, 20.5 µM (inactive); with UO-31, 11.9 µM (inactive); with RPMI-8226, 4.12 µM (inactive). The GI50 is 10.4 µM (inactive) in the assay with RXF 393; 25.8 µM (inactive) with NCI/ADR-RES; 19.6 µM (inactive) with SNB-19; 16.3 µM (inactive) with SW-620; 11.6 µM (inactive) in the assay with 786-0; 12.6 µM (inactive) in the assay on U-251. Besides, the GI50 was 11.7 µM (inactive) with HL-60 and 22.6 µM (inactive) with SF-295.
With `Clc1ccc(/C=N/c2ccc3c(c2)Cc2ccccc2-3)c(Cl)c1`, the GI50 with MCF7 is > 100 µM (inactive); in the assay on SK-MEL-2, > 100 µM (inactive); in the assay with CCRF-CEM, 88.5 µM (inactive); in the assay with SNB-75, > 100 µM (inactive); in the assay with SK-MEL-5, > 100 µM (inactive); with MDA-MB-231 it was > 100 µM (inactive). The GI50 with CAKI-1 was > 100 µM (inactive); with M14 it was > 100 µM (inactive); in the assay on SR it was 45.9 µM (inactive); in the assay on TK-10, > 100 µM (inactive); in the assay on UO-31 it was > 100 µM (inactive); with RPMI-8226, 75.2 µM (inactive). For the same compound, the GI50 in the assay on RXF 393, with NCI/ADR-RES, in the assay on SNB-19, in the assay on SW-620, with 786-0 and in the assay on U-251 was > 100 µM (inactive) throughout. Further, the GI50 was 77.1 µM (inactive) with HL-60 and > 100 µM (inactive) with SF-295.
Consider `CN(C)/N=C1\C=C2CC[C@H](O[Si](C)(C)C(C)(C)C)[C@@]2(C)CC1`, for which the GI50 in the assay on MCF7 is 15.6 µM (inactive); in the assay on SK-MEL-2, 16.2 µM (inactive); in the assay on CCRF-CEM it was 11.8 µM (inactive); with SNB-75, 16.3 µM (inactive); in the assay on SK-MEL-5, 12.4 µM (inactive); in the assay with MDA-MB-231, 16.6 µM (inactive). Further, the GI50 was 14.3 µM (inactive) with CAKI-1; 18.2 µM (inactive) in the assay on M14; 18.6 µM (inactive) in the assay with SR; 19.7 µM (inactive) in the assay on TK-10; 16.3 µM (inactive) with UO-31; 4.4 µM (inactive) in the assay on RPMI-8226. In addition, the GI50 in the assay with RXF 393 is 14.2 µM (inactive); in the assay with NCI/ADR-RES, 18.2 µM (inactive); in the assay on SNB-19 it was 17.7 µM (inactive); with SW-620, 17.5 µM (inactive); with 786-0 it was 18 µM (inactive); in the assay with U-251, 16.2 µM (inactive). Besides, the GI50 in the assay on HL-60 is 7.93 µM (inactive); in the assay on SF-295, 16.4 µM (inactive).
For `Cc1ccccc1/N=N/c1ccc(/N=N/c2c(O)ccc3cc(S(=O)(=O)O)cc(S(=O)(=O)O)c23)c(C)c1`, the GI50 in the assay with MCF7, in the assay on SK-MEL-2, in the assay with CCRF-CEM, with SNB-75, in the assay with SK-MEL-5 and with MDA-MB-231 was > 100 µM (inactive) each time. Moreover, the GI50 in the assay on CAKI-1, with M14, with SR, in the assay on TK-10, in the assay on UO-31 and with RPMI-8226 was > 100 µM (inactive) throughout. Moreover, the GI50 with RXF 393, in the assay with NCI/ADR-RES, in the assay on SNB-19, in the assay with SW-620, with 786-0 and in the assay on U-251 was > 100 µM (inactive) in each case. The GI50 in the assay on HL-60 and in the assay on SF-295 was > 100 µM (inactive) throughout.
As for `COc1cc2c(/C=C3/C(=O)Nc4ccccc43)c(Cl)n(Cc3ccc(Cl)cc3)c2cc1C`, the GI50 with MCF7 was 0.491 µM (active); in the assay with SK-MEL-2 it was 1.16 µM (inactive); in the assay on CCRF-CEM, 0.29 µM (active); in the assay with SNB-75, 0.237 µM (active); in the assay with SK-MEL-5, 0.384 µM (active); in the assay with MDA-MB-231 it was 0.216 µM (active). Further, the GI50 in the assay on CAKI-1 is 0.263 µM (active); in the assay with M14, 0.296 µM (active); with SR, 0.209 µM (active); with TK-10, 0.565 µM (active); with UO-31 it was 0.826 µM (active); with RPMI-8226, 0.27 µM (active). Moreover, the GI50 with RXF 393 is 0.339 µM (active); with NCI/ADR-RES, 0.225 µM (active); with SNB-19 it was 0.43 µM (active); in the assay with SW-620 it was 0.472 µM (active); in the assay with 786-0, 0.323 µM (active); with U-251, 0.307 µM (active). In addition, the values for the GI50 in the assay on HL-60 and with SF-295 were 0.373 µM (active) and 0.333 µM (active), respectively.
